What is called inhibition is the share of the control response that was lost under treatment.

A short description of series [1]: Cytotoxicity against Homo sapiens (human) HeLa cells infected with HIV-1 NL4-3 assessed as cell viability at 100 uM by XTT assay. Format: cell-based. Conditions: read-out: Activity. A general note: Tetrazolium assays rely on reduction of a dye to a coloured formazan, in cell work by metabolically active cells.
The subject of series [2] is Human immunodeficiency virus 1. Put plainly: Antiviral activity against Human immunodeficiency virus 1 NL4-3 infected human HeLa cells assessed as decrease in P24 expression at 100 uM after 72 hr by single cycle replication assay. The class given is functional. Particulars: Human immunodeficiency virus 1, NL4-3, HeLa.

With `Cc1ccc(-c2nnc(-c3cnc4ccccn4c3=O)s2)cc1`, in series [1], the viability at 100 µM is 93%. In series [2], the inhibition at 100 µM is 51%. Consider `Nc1nnc(-c2cnc3ccccn3c2=O)o1`, for which the viability at 100 µM in series [1] was determined as 96%. `O=c1c(-c2nnc(-c3ccccc3)s2)cnc2ccccn12`: the viability at 100 µM in series [1] was 100%. The inhibition at 100 µM in series [2] is 33%. `O=c1c(-c2nnc(S)o2)cnc2ccccn12`: the viability at 100 µM in series [1] worked out at 100%. Moreover, the inhibition at 100 µM in series [2] is 11%. In the same order, the values of `Cc1cn([C@H]2C[C@H](N=[N+]=[N-])[C@@H](CO)O2)c(=O)[nH]c1=O` [ZIDOVUDINE] are 100% and 100%.

Consider `COc1ccc(-c2nnc(-c3cnc4ccccn4c3=O)o2)cc1`, for which the viability at 100 µM in series [1] worked out at 100%. `O=c1c(-c2nnc(-c3ccc(F)cc3)o2)cnc2ccccn12`: in series [1], the viability at 100 µM worked out at 100%. For the same molecule, in series [2], the inhibition at 100 µM was determined as 18%. As to `O=c1c(-c2nnc(-c3ccc(F)cc3)s2)cnc2ccccn12`, in series [1], the viability at 100 µM amounted to 92%. Further, the inhibition at 100 µM in series [2] amounted to 48%.

For `Cc1ccc(-c2nnc(-c3cnc4ccccn4c3=O)o2)cc1`, the viability at 100 µM in series [1] was 94%. Further, the inhibition at 100 µM in series [2] came out at 29%. In the case of `O=c1c(-c2nnc(-c3ccc(Cl)cc3)o2)cnc2ccccn12`, the viability at 100 µM in series [1] stood at 94%. For the same molecule, the inhibition at 100 µM in series [2] came out at 26%.

Consider `COc1ccc(-c2nnc(-c3cnc4ccccn4c3=O)s2)cc1`, for which the viability at 100 µM in series [1] was found to be 97%. Moreover, the inhibition at 100 µM in series [2] was 28%. Regarding `O=c1c(-c2nnc(-c3ccc(Cl)cc3)s2)cnc2ccccn12`, the viability at 100 µM in series [1] was found to be 95%. In addition, in series [2], the inhibition at 100 µM is 39%. Turning to `O=c1c(-c2nnc(-c3ccccc3)o2)cnc2ccccn12`, in series [1], the viability at 100 µM worked out at 98%.

The values are drawn from ChEMBL document CHEMBL3044967, “Synthesis, biological evaluation, and molecular modeling studies of new 1,3,4-oxadiazole- and 1,3,4-thiadiazole-substituted 4-oxo-4H-pyrido[1,2-a]pyrimidines as anti-HIV-1 agents” (Med Chem Res, 2013).
